Results: US4654368A, “Tri-organotin silatrane derivatives and pesticidal compositions, fungicides or antifouling agents comprising said compounds as active ingredients” (Nitto Kasei Co., Ltd., priority 1984, dated 1987)

Key:
Format in all cases: in vivo
[1] = system: carmine mites (Tetranychus telarius L.); assay: Miticidal effect on carmine mites; design: key: -: Hardly any injury was observed.; +: Some injury was observed.; ++: The same injury as in the non-treated area was noted; settings: 500 ppm active ingredient, spray plus soil, kidney beans, 8 days later
Protocol: Female imagoes of carmine mites were caused to live at a rate of 10 per leaf on bineless kidney beans (in the primary leaf stage) in pots 7 days after sowing, and kept in a constant temperature chamber at 25° C. Six days later, a chemical obtained by diluting a wettable powder of each of compounds Nos. 4-6, 9-13, 15, 16, 21, 22, 25, 28-30, 33, 34, 36, 37 and 38 with water to an active ingredient concentration of 500 ppm was sprayed at a rate of 10 ml per pot, and at the same time, 2 ml of the chemical was poured into the soil. Eight days later, injuries to the plants by the mites were examined.
The degree of injury is shown by -, + and ++ as follows: […]

Plasmopara viticola = assay: Test on fungicidal effect on downy mildew of grape; settings: sprayed on grape seedlings
Excerpt: Sandy soil was filled in plastic pots, and seeds of grape (variety: Neomuscat) were sown, and grown for about 1 month in a greenhouse to obtain young seedlings of grape in the 2-3 leaf stage. A water dilution of an emulsifiable concentrate of a wettable powder of each of the test compounds was sprayed onto the leaves of these seedlings so that the chemical adhered fully to the surfaces of the leaves. After drying the chemical in air, a suspension of conidospores of a […] pathogen of grape (Plasmopara viticola) was inoculated in the seedling by spraying. The seedlings were placed for 2 days in a high humidity condition at 23° C., and subsequently cultivated for 14 days in a greenhouse kept at 20° to 25° C. to cause onset of the disease. Thereafter, the state of the disease was observed.
The degree of disease was calculated by the following method. The examined leaves were classified by indices of 0, 0.5, 1, 2 and 4 according to the degrees of appearance of lesions, and the degree of disease was calculated from the following equation.
0: No fungus colony or lesion was noted on the surface of the leaves.
The control index was calculated from the following equation. [formula]

[2] = system: tobacco cutworms (Prodenia litura Fabrficius); assay: Test on insecticidal efficacy on tobacco cutworms; settings: 500 ppm in artificial feed, 4th-instar larvae, 6 days; wettable powder of Formulation Example 5 (contains Fenitrothion)
Protocol: A wettable powder of each of compounds Nos. 3, 7, 8, 9, 11, 12, 13, 14, 17, 18 and 31 of the invention obtained in accordance with Formulation Example 5 was diluted with water to 200 times (corresponding to a concentration of 500 ppm). Two milliliters of the dilution was impregnated in 13 g of an artificial feed for tobacco cutworms, and the feed was put in a polyethylene cup having a diameter of 11 cm. Ten 4th-instar larvae of tobacco cutworms were released into the cup, and examined for mortality 6 days later. The above experiment was carried out through two replicates.

Culex pipiens = assay: Test on insecticidal effect on Culex pipiens; settings: 3.5 ppm, wettable powder of Formulation Example 5 (contains Fenitrothion); for Death rate: final-instar larvae, next day, 1440 min; for Emergence inhibition rate: when all larvae in non-treated area emerged
Protocol: A wettable powder of each of compounds Nos. 2, 7, 8, 11, 13, 14, 17, 18 and 31 obtained in accordance with Formulation Example 5 was diluted with water to 3.5 ppm. One hundred milliliters of the dilution was put in each of 180 ml. polyethylene cups and 20 final-instar larvae of Culex pipiens were released into the cup. On the next day, the larvae were examined for mortality.
Thereafter, feeds were added to the test areas, and when all larvae n the non-treated area emerged, the emergence inhibition rate was examined.
The death rate and the emergence inhibition rate were rated by three grades as follows: […]

[3] = system: marine animals and plants; assay: Test on antifouling effects on marine animals and plants in the sea; settings: Owase Bay; for Fouled state, period of submerging 4 months / Fouled state, period of submerging 8 months / Fouled state, period of submerging 12 months: antifouling paint on vinyl chloride plate
Protocol: A ship bottom antifouling paint was prepared by adding 24 g of Rosin WW, 12 g of a vinyl copolymer, 4 g of tricresyl phosphate, 10 g of bentonite, 20 g of baryta, 20 g of red iron oxide, 35 g of xylene and 35 g of methyl isobutyl ketone to 40 g of each of compounds Nos. 2, 8, 14, 17, 20 and 32 of the invention and vigorously stirring the mixture at room temperature for 1 hour. The paint was coated on both surfaces of a rigid vinyl chloride resin plate, 17×9×0.3 cm in size, to a dry thickness of about 200 microns. The coated plate was submerged in the sea in Owase Bay, Mie Prefecture, Japan for 12 months, and its fouled state was regularly observed.
The symbols in the table show the following.

In the case of `CCC1CN2CCO[Si](CCC[S][Sn]([CH]3CCCCC3)([CH]3CCCCC3)[CH]3CCCCC3)(O1)OC(CC)C2` (centres unmarked) [compound 22], the Degree of injury [1] is reported as “-~+”.

In the case of `CCCCCCC[CH2][Sn]([CH2]CCCCCCC)([CH2]CCCCCCC)[S]CCC[Si]12OCCN(CCO1)CCO2` [compound 29], the Degree of injury [1] is reported as “-~+”.

In the case of `CCO[PH](=O)O` [reference compound], the Control index (Plasmopara viticola; 200 ppm active ingredient) is reported as 68%.

`c1cc[c]([Sn]([S]CCC[Si]23OCCN(CCO2)CCO3)([c]2ccccc2)[c]2ccccc2)cc1` [compound 1] gave a Control index (Plasmopara viticola; 12.5 ppm active ingredient) of 97%, a Control index (Plasmopara viticola; 50 ppm active ingredient) of 100% and a Control index (Plasmopara viticola; 200 ppm active ingredient) of 100%.

In the case of `CCC[CH2][Sn]([CH2]CCC)([CH2]CCC)[S]CCC[Si]12OCCN(CCO1)CC(CC)O2` (centres unmarked) [compound 25], the Degree of injury [1] is reported as “-~+”.

For `CC(C)([CH2][Sn]([CH2]C(C)(C)c1ccccc1)([CH2]C(C)(C)c1ccccc1)[S]CC[Si]12OCCN(CCO1)CCO2)c1ccccc1` [compound 5], the Degree of injury [1] was “-~+”.

In the case of `C1CC[CH]([Sn]([S]CC[Si]23OCCN(CCO2)CCO3)([CH]2CCCCC2)[CH]2CCCCC2)CC1` [compound 7], the Death rate [2] is reported as 100%, the Death rate (Culex pipiens) is reported as “C (less than 10%)” and the Emergence inhibition rate (Culex pipiens) is reported as “A (90% or higher)”.

`CCC1CN2CCO[Si](CCC[S][Sn]([c]3ccccc3)([c]3ccccc3)[c]3ccccc3)(OCC2)O1` (centres unmarked) [compound 31] was tested, and the Death rate [2] was 100%, the Death rate (Culex pipiens) was “B (less than 90% to 10%)” and the Emergence inhibition rate (Culex pipiens) was “A (90% or higher)”.

For `CC(C)(C)[CH2][Sn]([CH2]C(C)(C)C)([CH2]C(C)(C)C)[S]CC[Si]12OCCN(CCO1)CCO2` [compound 38], the Degree of injury [1] was “-”.

`CCC1CN2CCO[Si](CCC[S][Sn]([CH2]C(C)C)([CH2]C(C)C)[CH2]C(C)C)(O1)OC(CC)C2` (centres unmarked) [compound 28] was tested, and the Degree of injury [1] was “-”.

`CC1CN2CC(C)O[Si](CCC[S][Sn]([c]3ccccc3)([c]3ccccc3)[c]3ccccc3)(O1)OC(C)C2` (centres unmarked) [compound 9, 1-(3-triphenylstannylthiopropyl)-3,7,10-trimethylsilatrane] was tested, and the Degree of injury [1] was “-”, the Death rate [2] was 100% and the Control index (Plasmopara viticola; 12.5 ppm active ingredient) was 98%. It also gave a Control index (Plasmopara viticola; 50 ppm active ingredient) of 100% and a Control index (Plasmopara viticola; 200 ppm active ingredient) of 100%.

`CC1CN2CC(C)O[Si](CC[S][Sn]([c]3ccccc3)([c]3ccccc3)[c]3ccccc3)(O1)OC(C)C2` (centres unmarked) [compound 3] was tested, and the Death rate [2] was 100%, the Control index (Plasmopara viticola; 12.5 ppm active ingredient) was 98% and the Control index (Plasmopara viticola; 50 ppm active ingredient) was 100%. It also gave a Control index (Plasmopara viticola; 200 ppm active ingredient) of 100%.

In the case of `c1cc[c]([Sn]([S]CC[Si]23OCCN(CCO2)CCO3)([c]2ccccc2)[c]2ccccc2)cc1` [compound 2, 1-(2-triphenylstannylthioethyl)silatrane], the “Fouled state, period of submerging 4 months” value [3] is reported as “.circle”, the “Fouled state, period of submerging 8 months” value [3] is reported as “.circle” and the “Fouled state, period of submerging 12 months” value [3] is reported as “.circle”. For the same compound, the Death rate (Culex pipiens) was “B (less than 90% to 10%)” and the Emergence inhibition rate (Culex pipiens) was “A (90% or higher)”.

With `CCCCCCC[CH2][Sn]([CH2]CCCCCCC)([CH2]CCCCCCC)[S]CCC[Si]12OC(C)CN(CC(C)O1)CC(C)O2` (centres unmarked) [compound 16] the Degree of injury [1] was “-”.

With `CCCCCCC[CH2][Sn]([CH2]CCCCCCC)([CH2]CCCCCCC)[S]CCC[Si]12OCCN(CCO1)CCO2` [compound 15] the Degree of injury [1] was “-”.

`CCC[CH2][Sn]([CH2]CCC)([CH2]CCC)[S]CCC[Si]12OCCN(CCO1)CCO2` [compound 14] was tested, and the “Fouled state, period of submerging 4 months” value [3] was “.circle”, the “Fouled state, period of submerging 8 months” value [3] was “.circle” and the “Fouled state, period of submerging 12 months” value [3] was “.circle”. The Death rate [2] was 100%, the Death rate (Culex pipiens) was “A (90% or higher)” and the Emergence inhibition rate (Culex pipiens) was “A (90% or higher)”.

With `CC1CN2CC(C)O[Si](CCC[S][Sn]([CH2]C(C)(C)c3ccccc3)([CH2]C(C)(C)c3ccccc3)[CH2]C(C)(C)c3ccccc3)(O1)OC(C)C2` (centres unmarked) [compound 10] the Degree of injury [1] was “-”.

`CCCCCCC[CH2][Sn]([CH2]CCCCCCC)([CH2]CCCCCCC)[S]CCC[Si]12OC(C)CN(CC(C)O1)CC(C)O2` (centres unmarked) [compound 30] was tested, and the Degree of injury [1] was “-”.

`CC1CN2CC(C)O[Si](CC[S][Sn]([CH2]C(C)(C)c3ccccc3)([CH2]C(C)(C)c3ccccc3)[CH2]C(C)(C)c3ccccc3)(O1)OC(C)C2` (centres unmarked) [compound 6] was tested, and the Degree of injury [1] was “-~+”.

With `CCC1CN2CC(C)O[Si](CCC[S][Sn]([CH]3CCCCC3)([CH]3CCCCC3)[CH]3CCCCC3)(OC(C)C2)O1` (centres unmarked) [compound 37] the Degree of injury [1] was “-”.

For `CCC1CN2CCO[Si](CCC[S][Sn]([CH2]C(C)(C)c3ccccc3)([CH2]C(C)(C)c3ccccc3)[CH2]C(C)(C)c3ccccc3)(O1)OC(CC)C2` (centres unmarked) [compound 21], the Degree of injury [1] was “-”.

In the case of `CCC1CN2CC(C)O[Si](CCC[S][Sn]([CH2]C(C)(C)c3ccccc3)([CH2]C(C)(C)c3ccccc3)[CH2]C(C)(C)c3ccccc3)(OC(C)C2)O1` (centres unmarked) [compound 34], the Degree of injury [1] is reported as “-”.

In the case of `CCC1CN2CCO[Si](CCC[S][Sn]([CH2]C(C)(C)c3ccccc3)([CH2]C(C)(C)c3ccccc3)[CH2]C(C)(C)c3ccccc3)(OCC2)O1` (centres unmarked) [compound 33], the Degree of injury [1] is reported as “-”.

In the case of `CCC1CN2CCO[Si](CCC[S][Sn]([CH]3CCCCC3)([CH]3CCCCC3)[CH]3CCCCC3)(OCC2)O1` (centres unmarked) [compound 36], the Degree of injury [1] is reported as “-~+”.

With `CC(C)([CH2][Sn]([CH2]C(C)(C)c1ccccc1)([CH2]C(C)(C)c1ccccc1)[S]CCC[Si]12OCCN(CCO1)CCO2)c1ccccc1` [compound 4, 1-(3-trineophylstannylthiopropyl)silatrane] the Degree of injury [1] was “-”.

`C1CC[CH]([Sn]([S]CCC[Si]23OCCN(CCO2)CCO3)([CH]2CCCCC2)[CH]2CCCCC2)CC1` [compound 13] was tested, and the Degree of injury [1] was “-”, the Death rate [2] was 100% and the Death rate (Culex pipiens) was “A (90% or higher)”. The Emergence inhibition rate (Culex pipiens) was “A (90% or higher)”.

With `CCC[CH2][Sn]([CH2]CCC)([CH2]CCC)[S]CC[Si]12OC(C)CN(CC(C)O1)CC(C)O2` (centres unmarked) [compound 8] the “Fouled state, period of submerging 4 months” value [3] was “.circle”, the “Fouled state, period of submerging 8 months” value [3] was “.circle” and the “Fouled state, period of submerging 12 months” value [3] was “.circle”. The Death rate [2] was 100%, the Control index (Plasmopara viticola; 12.5 ppm active ingredient) was 94% and the Control index (Plasmopara viticola; 50 ppm active ingredient) was 100%. The Control index (Plasmopara viticola; 200 ppm active ingredient) was 100%, the Death rate (Culex pipiens) was “B (less than 90% to 10%)” and the Emergence inhibition rate (Culex pipiens) was “A (90% or higher)”.

`CC1CN2CC(C)O[Si](CCC[S][Sn]([CH]3CCCCC3)([CH]3CCCCC3)[CH]3CCCCC3)(O1)OC(C)C2` (centres unmarked) [compound 11] was tested, and the Degree of injury [1] was “-”, the Death rate [2] was 100% and the Control index (Plasmopara viticola; 12.5 ppm active ingredient) was 96%. For the same compound, the Control index (Plasmopara viticola; 50 ppm active ingredient) was 100%, the Control index (Plasmopara viticola; 200 ppm active ingredient) was 100% and the Death rate (Culex pipiens) was “B (less than 90% to 10%)”. For the same compound, the Emergence inhibition rate (Culex pipiens) was “A (90% or higher)”.

With `CCC1CN2CCO[Si](CCC[S][Sn]([c]3ccccc3)([c]3ccccc3)[c]3ccccc3)(O1)OC(CC)C2` (centres unmarked) [compound 20] the “Fouled state, period of submerging 4 months” value [3] was “.circle”, the “Fouled state, period of submerging 8 months” value [3] was “.circle” and the “Fouled state, period of submerging 12 months” value [3] was “Δ (Marine animals and plants adhered to less than 5% of the area of the coated film)”. The “Fouled by” value ([3]; antifouling paint, up to 12 months) was “Algae”.
